# According to ChEMBL document CHEMBL4373724, “An overview of recent progress in siderophore-antibiotic conjugates” (2019):
# Experiments:
# Format in all cases: functional
# [1] = system: Staphylococcus aureus; assay: Antimicrobial activity against Staphylococcus aureus SG 511 after 18 hrs by CLSI protocol based broth microdilution method; conditions: SG 511, 18 h
# [2] = system: Klebsiella aerogenes; assay: Antimicrobial activity against Enterobacter aerogenes ATCC 35029 after 18 hrs by CLSI protocol based broth microdilution method; conditions: ATCC 35029, 18 h
# [3] = system: Acinetobacter baumannii; assay: Antimicrobial activity against Acinetobacter baumannii ATCC 17961 after 18 hrs by CLSI protocol based broth microdilution method; conditions: ATCC 17961, 18 h
# [4] = system: Escherichia coli; assay: Antimicrobial activity against Escherichia coli ATCC 25922 after 18 hrs by CLSI protocol based broth microdilution method; conditions: ATCC 25922, 18 h
# [5] = system: Pseudomonas aeruginosa; assay: Antimicrobial activity against Pseudomonas aeruginosa ATCC 27853 after 18 hrs by CLSI protocol based broth microdilution method; conditions: ATCC 27853, 18 h
# [6] = system: Klebsiella pneumoniae; assay: Antimicrobial activity against Klebsiella pneumoniae 700603 after 18 hrs by CLSI protocol based broth microdilution method; conditions: Klebsiella pneumoniae, 700603, 18 h
# [7] = system: Enterococcus faecium; assay: Antimicrobial activity against Enterococcus faecium NCTC after 18 hrs by CLSI protocol based broth microdilution method
# [8] = system: Escherichia coli; assay: Antimicrobial activity against Escherichia coli X580 under iron-deficient condition by broth microdilution method
# [9] = system: Pseudomonas aeruginosa; assay: Antimicrobial activity against Pseudomonas aeruginosa X620 under iron-deficient condition by broth microdilution method
# [10] = system: Micrococcus luteus; assay: Antimicrobial activity against Micrococcus luteus under iron-sufficient condition by broth microdilution method
# [11] = system: Pseudomonas aeruginosa; assay: Antimicrobial activity against Pseudomonas aeruginosa X621 under iron-deficient condition by broth microdilution method
# [12] = system: Escherichia coli; assay: Antimicrobial activity against Escherichia coli EC14 under iron-deficient condition by broth microdilution method
# [13] = system: Escherichia coli; assay: Antimicrobial activity against Escherichia coli X580 under iron-sufficient condition by broth microdilution method
# [14] = system: Micrococcus luteus; assay: Antimicrobial activity against Micrococcus luteus under iron-deficient condition by broth microdilution method
# [15] = system: Pseudomonas aeruginosa; assay: Antimicrobial activity against Pseudomonas aeruginosa X621 under iron-sufficient condition by broth microdilution method
# [16] = system: Staphylococcus aureus; assay: Antimicrobial activity against Staphylococcus aureus X1.1 under iron-deficient condition by broth microdilution method
# [17] = system: Escherichia coli; assay: Antimicrobial activity against Escherichia coli EC14 under iron-sufficient condition by broth microdilution method
# [18] = system: Staphylococcus aureus; assay: Antimicrobial activity against Staphylococcus aureus X1.1 under iron-sufficient condition by broth microdilution method
# [19] = system: Pseudomonas aeruginosa; assay: Antimicrobial activity against Pseudomonas aeruginosa X620 under iron-sufficient condition by broth microdilution method
# [20] = system: Pseudomonas aeruginosa; assay: Antimicrobial activity against Pseudomonas aeruginosa PA6 under iron-sufficient condition by CLSI protocol based broth microdilution method
# [21] = system: Pseudomonas aeruginosa; assay: Antimicrobial activity against Pseudomonas aeruginosa 61 under iron-sufficient condition by CLSI protocol based broth microdilution method
# [22] = system: Pseudomonas aeruginosa; assay: Antimicrobial activity against Pseudomonas aeruginosa PAO1 under iron-sufficient condition by CLSI protocol based broth microdilution method
# [23] = system: Pseudomonas aeruginosa; assay: Antimicrobial activity against Pseudomonas aeruginosa PA6 under iron-deficient condition by CLSI protocol based broth microdilution method
# [24] = system: Pseudomonas aeruginosa; assay: Antimicrobial activity against Pseudomonas aeruginosa KW799 under iron-deficient condition by CLSI protocol based broth microdilution method
# [25] = system: Klebsiella pneumoniae; assay: Antimicrobial activity against Klebsiella pneumoniae ATCC 8303 under iron-deficient condition by CLSI protocol based broth microdilution method
# [26] = system: Escherichia coli; assay: Antimicrobial activity against Escherichia coli ATCC 25922 under iron-sufficient condition by CLSI protocol based broth microdilution method
# [27] = system: Pseudomonas aeruginosa; assay: Antimicrobial activity against Pseudomonas aeruginosa KW799 under iron-sufficient condition by CLSI protocol based broth microdilution method
# [28] = system: Pseudomonas aeruginosa; assay: Antimicrobial activity against Pseudomonas aeruginosa PA4 under iron-deficient condition by CLSI protocol based broth microdilution method
# [29] = system: Pseudomonas aeruginosa; assay: Antimicrobial activity against Pseudomonas aeruginosa PAO1 under iron-deficient condition by CLSI protocol based broth microdilution method
# [30] = system: Escherichia coli; assay: Antimicrobial activity against Escherichia coli ATCC 25922 under iron-deficient condition by CLSI protocol based broth microdilution method
# [31] = system: Klebsiella pneumoniae; assay: Antimicrobial activity against Klebsiella pneumoniae X68 under iron-sufficient condition by CLSI protocol based broth microdilution method
# [32] = system: Pseudomonas aeruginosa; assay: Antimicrobial activity against Pseudomonas aeruginosa under iron-sufficient condition by CLSI protocol based broth microdilution method
# [33] = system: Pseudomonas aeruginosa; assay: Antimicrobial activity against Pseudomonas aeruginosa PA4 under iron-sufficient condition by CLSI protocol based broth microdilution method
# [34] = system: Klebsiella pneumoniae; assay: Antimicrobial activity against Klebsiella pneumoniae ATCC 8303 under iron-sufficient condition by CLSI protocol based broth microdilution method
# [35] = system: Pseudomonas aeruginosa; assay: Antimicrobial activity against Pseudomonas aeruginosa under iron-deficient condition by CLSI protocol based broth microdilution method
# [36] = system: Klebsiella pneumoniae; assay: Antimicrobial activity against Klebsiella pneumoniae X68 under iron-deficient condition by CLSI protocol based broth microdilution method
# [37] = system: Pseudomonas aeruginosa; assay: Antimicrobial activity against Pseudomonas aeruginosa 61 under iron-deficient condition by CLSI protocol based broth microdilution method
structure (smiles),measurement,setting,value
O=C(O)c1cn(C2CC2)c2cc(N3CCN(C(=O)CCC(=O)N(O)CCCCCO)CC3)c(F)cc2c1=O,MIC,[1],32 µM
same,MIC,[2],4 µM
same,MIC,[3],16 µM
same,MIC,[4],2 µM
same,MIC,[5],128 µM
same,MIC,[6],16 µM
same,MIC,[7],> 128 µM
O=C(CCC(=O)N(O)CCCCCO)NCCCCCN(O)C(=O)CCC(=O)N1CCN(c2cc3c(cc2F)c(=O)c(C(=O)O)cn3C2CC2)CC1,MIC,[1],64 µM
same,MIC,[2],4 µM
same,MIC,[3],64 µM
same,MIC,[4],2 µM
same,MIC,[5],64 µM
same,MIC,[6],128 µM
same,MIC,[7],> 128 µM
O=C(CCC(=O)N(O)CCCCCO)NCCCCCN(O)C(=O)CCC(=O)NCCCCCN(O)C(=O)CCC(=O)N[C@@H](C(=O)N[C@@H]1C(=O)N2C(C(=O)O)=C(Cl)CC[C@H]12)c1ccccc1,MIC,[1],64 µM
same,MIC,[2],> 128 µM
same,MIC,[3],64 µM
same,MIC,[4],128 µM
same,MIC,[5],> 128 µM
same,MIC,[6],> 128 µM
same,MIC,[7],> 128 µM
CN[C@H](CC(C)C)C(=O)N[C@H]1C(=O)N[C@@H](CC(N)=O)C(=O)N[C@H]2C(=O)N[C@H]3C(=O)N[C@H](C(=O)N[C@H](C(=O)O)c4cc(O)cc(O)c4-c4cc3ccc4O)[C@H](O)c3ccc(c(Cl)c3)Oc3cc2cc(c3O[C@@H]2O[C@H](CO)[C@@H](O)[C@H](O)[C@H]2O[C@H]2C[C@](C)(NC(=O)CCC(=O)N(CCCCNC(=O)c3cccc(O)c3O)CCCNC(=O)c3cccc(O)c3O)[C@H](O)[C@H](C)O2)Oc2ccc(cc2Cl)[C@H]1O,MIC,[8],128 µM
same,MIC,[9],> 128 µM
same,MIC,[10],16 µM
same,MIC,[11],32 µM
same,MIC,[12],> 128 µM
same,MIC,[13],> 128 µM
same,MIC,[14],32 µM
same,MIC,[15],> 128 µM
same,MIC,[16],32 µM
same,MIC,[17],> 128 µM
same,MIC,[18],32 µM
same,MIC,[19],> 128 µM
O=C(CCC(=O)N(O)CCCCCO)N[C@@H](C(=O)N[C@@H]1C(=O)N2C(C(=O)O)=C(Cl)CC[C@H]12)c1ccccc1,MIC,[1],16 µM
same,MIC,[2],> 128 µM
same,MIC,[3],≥ 128 µM
same,MIC,[4],> 128 µM
same,MIC,[5],> 128 µM
same,MIC,[6],> 128 µM
same,MIC,[7],> 128 µM
O=C(CCC(=O)N(O)CCCCCO)NCCCCCN(O)C(=O)CCC(=O)N[C@@H](C(=O)N[C@@H]1C(=O)N2C(C(=O)O)=C(Cl)CC[C@H]12)c1ccccc1,MIC,[1],64 µM
same,MIC,[2],> 128 µM
same,MIC,[3],32 µM
same,MIC,[4],≥ 128 µM
same,MIC,[5],> 128 µM
same,MIC,[6],> 128 µM
same,MIC,[7],> 128 µM
CC1(C)S[C@@H]2[C@H](NC(=O)[C@H](NC(=O)CCC(=O)NC(CCCNC(=O)c3cccc(O)c3O)(CCCNC(=O)c3cccc(O)c3O)CCCNC(=O)c3cccc(O)c3O)c3ccccc3)C(=O)N2[C@H]1C(=O)O,MIC90,[20],> 200 µM
same,MIC90,[21],12.5 µM
same,MIC90,[22],50 µM
same,MIC90,[23],> 200 µM
same,MIC90,[24],0.05 to 0.067 µM
same,MIC90,[25],> 100 µM
same,MIC90,[26],150 µM
same,MIC90,[27],12.5 to 33 µM
same,MIC90,[28],0.39 µM
same,MIC90,[29],0.39 µM
same,MIC90,[30],1.56 µM
same,MIC90,[31],> 200 µM
same,MIC90,[32],33 µM
same,MIC90,[33],25 µM
same,MIC90,[34],> 200 µM
same,MIC90,[35],0.05 µM
same,MIC90,[36],> 100 µM
same,MIC90,[37],0.067 µM
O=C(CCC(=O)N(O)CCCCCO)NCCCCCN(O)C(=O)CCC(=O)NCCCCCN(O)C(=O)CCC(=O)N1CCN(c2cc3c(cc2F)c(=O)c(C(=O)O)cn3C2CC2)CC1,MIC,[1],1 µM
same,MIC,[2],64 µM
same,MIC,[3],≥ 128 µM
same,MIC,[4],> 128 µM
same,MIC,[5],> 128 µM
same,MIC,[6],> 128 µM
same,MIC,[7],64 µM
CC1(C)S[C@@H]2[C@H](NC(=O)[C@H](NC(=O)CCC(=O)NC(CCCNC(=O)c3cccc(O)c3O)(CCCNC(=O)c3cccc(O)c3O)CCCNC(=O)c3cccc(O)c3O)c3ccc(O)cc3)C(=O)N2[C@H]1C(=O)O,MIC90,[20],> 200 µM
same,MIC90,[21],12.5 µM
same,MIC90,[22],50 µM
same,MIC90,[23],> 200 µM
same,MIC90,[24],0.05 to 0.083 µM
same,MIC90,[25],> 100 µM
same,MIC90,[26],100 µM
same,MIC90,[27],12.5 to 25 µM
same,MIC90,[28],0.21 µM
same,MIC90,[29],0.39 µM
same,MIC90,[30],6.25 µM
same,MIC90,[31],> 200 µM
same,MIC90,[32],25 µM
same,MIC90,[33],25 µM
same,MIC90,[34],> 200 µM
same,MIC90,[35],0.05 µM
same,MIC90,[36],> 100 µM
same,MIC90,[37],0.083 µM
CC1(C)S[C@@H]2[C@H](NC(=O)[C@H](N)c3ccc(O)cc3)C(=O)N2[C@H]1C(=O)O [AMOXICILLIN],MIC90,[20],> 200 µM
same,MIC90,[21],0.46 µM
same,MIC90,[22],> 200 µM
same,MIC90,[23],> 200 µM
same,MIC90,[24],0.39 to 200 µM
same,MIC90,[25],> 100 µM
same,MIC90,[26],4.17 µM
same,MIC90,[27],0.46 to 200 µM
same,MIC90,[28],> 100 µM
same,MIC90,[29],> 100 µM
same,MIC90,[30],4.17 µM
same,MIC90,[31],100 µM
same,MIC90,[32],> 200 µM
same,MIC90,[33],> 200 µM
same,MIC90,[34],100 µM
same,MIC90,[35],> 200 µM
same,MIC90,[36],> 100 µM
same,MIC90,[37],0.39 µM
CC1(C)S[C@@H]2[C@H](NC(=O)[C@H](N)c3ccccc3)C(=O)N2[C@H]1C(=O)O [AMPICILLIN],MIC90,[20],> 200 µM
same,MIC90,[21],0.52 µM
same,MIC90,[22],> 200 µM
same,MIC90,[23],> 200 µM
same,MIC90,[24],0.78 to 200 µM
same,MIC90,[25],> 100 µM
same,MIC90,[26],16.7 µM
same,MIC90,[27],0.52 to 200 µM
same,MIC90,[28],> 100 µM
same,MIC90,[29],> 100 µM
same,MIC90,[30],12.5 µM
same,MIC90,[31],> 200 µM
same,MIC90,[32],> 200 µM
same,MIC90,[33],> 200 µM
same,MIC90,[34],> 200 µM
same,MIC90,[35],> 200 µM
same,MIC90,[36],> 100 µM
same,MIC90,[37],0.78 µM
N[C@@H](C(=O)N[C@@H]1C(=O)N2C(C(=O)O)=C(Cl)CC[C@H]12)c1ccccc1 [LORACARBEF ANHYDROUS],MIC,[1],1 µM
same,MIC,[2],> 128 µM
same,MIC,[3],> 128 µM
same,MIC,[4],2 µM
same,MIC,[5],> 128 µM
same,MIC,[6],128 µM
same,MIC,[7],32 µM
